{"source": "patent US20240158392A1", "about": "(Janssen Biotech, Inc., priority 2021, published 2024)", "note": "pIC50: −log10 of the molar value.", "data": [{"molecular_target": "SIK2 (Homo sapiens, UniProt Q9H0K1)", "sequence (Q9H0K1 whole entry, species assumed)": "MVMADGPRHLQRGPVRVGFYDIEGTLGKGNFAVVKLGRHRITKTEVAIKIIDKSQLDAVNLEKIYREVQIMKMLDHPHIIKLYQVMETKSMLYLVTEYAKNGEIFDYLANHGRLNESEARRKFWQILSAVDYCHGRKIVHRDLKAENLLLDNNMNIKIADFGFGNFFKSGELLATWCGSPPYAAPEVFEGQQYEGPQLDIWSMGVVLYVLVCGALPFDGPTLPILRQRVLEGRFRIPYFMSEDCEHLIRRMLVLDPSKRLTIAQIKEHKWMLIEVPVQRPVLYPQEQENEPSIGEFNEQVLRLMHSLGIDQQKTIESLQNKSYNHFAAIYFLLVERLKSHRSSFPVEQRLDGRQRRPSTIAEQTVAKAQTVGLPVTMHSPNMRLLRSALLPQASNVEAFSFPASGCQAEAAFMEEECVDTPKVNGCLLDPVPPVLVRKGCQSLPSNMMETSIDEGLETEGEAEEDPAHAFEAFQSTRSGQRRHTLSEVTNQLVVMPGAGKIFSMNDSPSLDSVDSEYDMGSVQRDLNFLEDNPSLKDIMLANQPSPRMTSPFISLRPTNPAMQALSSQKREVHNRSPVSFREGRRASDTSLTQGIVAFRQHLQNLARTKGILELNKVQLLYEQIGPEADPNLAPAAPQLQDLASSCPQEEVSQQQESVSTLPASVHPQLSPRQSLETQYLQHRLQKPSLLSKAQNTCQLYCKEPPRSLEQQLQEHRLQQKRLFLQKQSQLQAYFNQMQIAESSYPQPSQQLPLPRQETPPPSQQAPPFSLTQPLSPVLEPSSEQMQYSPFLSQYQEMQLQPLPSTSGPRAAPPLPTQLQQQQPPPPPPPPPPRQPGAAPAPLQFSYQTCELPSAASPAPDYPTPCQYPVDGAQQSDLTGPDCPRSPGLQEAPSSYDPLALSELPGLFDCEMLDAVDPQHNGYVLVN", "experiment": "SIK2 Enzymatic Assay High Version 2 (High ATP)", "assay_type": "biochemical", "details": "not given", "method_in_brief": "(§1)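 At room temperature, enzyme (6 nM, 2× final) was preincubated with compound for 30 min, then 6 mM ATP and 400 μM HDAC5tide (both 2× final) were added for 2 h. ADP formed was measured by ADP-Glo Max (2 h reagent, 1 h detection) using luminescence.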", "values": [{"molecule": "Cc1cc(-c2ccn3nc(Nc4ccc(C(=O)NCC(C)(C)C#N)cn4)cc3c2)c(O[C@H]2C[C@H]3COC[C@@H](C2)N3)cn1", "note": "[Example 389, N-(2-cyano-2-methyl-propyl)-6-[[5-[2-methyl-5-[[(1S,5R,7s)-3-oxa-9-azabicyclo[3.3.1]nonan-7-yl]oxy]-4-pyridyl]pyrazolo[1,5-a]pyridin-2-yl]amino]pyridine-3-carboxamide]", "pIC50": 8.99}, {"molecule": "Cc1cc(-c2ccn3nc(Nc4ccc(=O)n(C)n4)cc3c2)c(O[C@H]2C[C@H]3COC[C@@H](C2)N3)cn1", "note": "[Example 401, 2-methyl-6-[[5-[2-methyl-5-[[(1S,5R,7s)-3-oxa-9-azabicyclo[3.3.1]nonan-7-yl]oxy]-4-pyridyl]pyrazolo[1,5-a]pyridin-2-yl]amino]pyridazin-3-one]", "pIC50": 7.79}, {"molecule": "Cc1cc(-c2ccn3nc(Nc4cc(C)nc(C)n4)cc3c2)c(O[C@@H]2[C@@H]3CO[C@H]2CN3)cn1", "note": "[Example 524, N-(2,6-dimethylpyrimidin-4-yl)-5-[2-methyl-5-[[(1S,4S,7R)-2-oxa-5-azabicyclo[2.2.1]heptan-7-yl]oxy]-4-pyridyl]pyrazolo[1,5-a]pyridin-2-amine]", "pIC50": 7.69}, {"molecule": "Cc1cc(-c2ccn3nc(Nc4ccc(C(F)(F)F)cn4)cc3c2)c(O[C@H]2C[C@H]3COC[C@@H](C2)N3)cn1", "note": "[Example 374, 5-[2-methyl-5-[[(1S,5R,7s)-3-oxa-9-azabicyclo[3.3.1]nonan-7-yl]oxy]-4-pyridyl]-N-[5-(trifluoromethyl)-2-pyridyl]pyrazolo[1,5-a]pyridin-2-amine]", "pIC50": "> 9.07"}, {"molecule": "Cc1cc(Nc2cc3cc(-c4cc(C(F)(F)F)ncc4OC[C@H]4CCN4C)ccn3n2)nc(C)n1", "note": "[Example 625, N-(2,6-dimethylpyrimidin-4-yl)-5-[5-[[(2R)-1-methylazetidin-2-yl]methoxy]-2-(trifluoromethyl)-4-pyridyl]pyrazolo[1,5-a]pyridin-2-amine]", "pIC50": 6.14}, {"molecule": "Cc1cc(-c2ccn3nc(NC(=O)C4CC4)c(C)c3c2)c(O[C@H]2C[C@H]3COC[C@@H](C2)N3)cn1", "note": "[Example 400, N-[3-methyl-5-[2-methyl-5-[[(1S,5R,7s)-3-oxa-9-azabicyclo[3.3.1]nonan-7-yl]oxy]-4-pyridyl]pyrazolo[1,5-a]pyridin-2-yl]cyclopropanecarboxamide]", "pIC50": 9.04}, {"molecule": "Cc1cc(-c2ccn3nc(Nc4ccc(C(N)=O)cn4)cc3c2)c(O[C@H]2C[C@H]3COC[C@@H](C2)N3)cn1", "note": "[Example 376, 6-[[5-[2-methyl-5-[[(1R,5S,7s)-3-oxa-9-azabicyclo[3.3.1]nonan-7-yl]oxy]-4-pyridyl]pyrazolo[1,5-a]pyridin-2-yl]amino]pyridine-3-carboxamide]", "pIC50": 8.87}, {"molecule": "Cc1cc(-c2ccn3nc(Nc4cn(C)nn4)cc3c2)c(O[C@H]2C[C@H]3COC[C@@H](C2)N3C)cn1", "note": "[Example 414, 5-[2-methyl-5-[[(1R,5S,7s)-9-methyl-3-oxa-9-azabicyclo[3.3.1]nonan-7-yl]oxy]-4-pyridyl]-N-(1-methyltriazol-4-yl)pyrazolo[1,5-a]pyridin-2-amine]", "pIC50": 7.82}, {"molecule": "Cc1cc(-c2ccn3nc(Nc4cc(C)nc(C)n4)cc3c2)c(OC[C@H]2CC[C@H](O)CO2)cn1", "note": "(single isomer, unassigned) [Example 347, (3*S,6*S)-6-[[4-[2-[(2,6-dimethylpyrimidin-4-yl)amino]pyrazolo[1,5-a]pyridin-5-yl]-6-methyl-3-pyridyl]oxymethyl]tetrahydropyran-3-ol]", "pIC50": 7.45}, {"molecule": "Cc1cc(-c2ccn3nc(Nc4cccc(C(F)(F)F)n4)cc3c2)c(O[C@@H]2C[C@H]3COC[C@@H](C2)N3C)cn1", "note": "[Example 406, 5-[2-methyl-5-[[(1S,5R,7s)-9-methyl-3-oxa-9-azabicyclo[3.3.1]nonan-7-yl]oxy]-4-pyridyl]-N-[6-(trifluoromethyl)-2-pyridyl]pyrazolo[1,5-a]pyridin-2-amine]", "pIC50": 8.74}, {"molecule": "Cc1cc(-c2ccn3nc(NC(=O)C4CC4)cc3c2)c(O[C@H]2[C@@H]3CN(C)[C@H]2CO3)cn1", "note": "[Example 164, N-(5-(2-methyl-5-(((1S,4S,7R)-5-methyl-2-oxa-5-azabicyclo[2.2.1]heptan-7-yl)oxy)pyridin-4-yl)pyrazolo[1,5-a]pyridin-2-yl)cyclopropanecarboxamide]", "pIC50": 6.66}]}, {"molecular_target": "SIK2 (Homo sapiens, UniProt Q9H0K1)", "experiment": "SIK2 Enzymatic Assay High Version 2 (High ATP)", "assay_type": "biochemical", "details": "enzyme 6 nM, 6 mM ATP and 400 μM HDAC5tide (each 2× final concentration); 30 minutes pre-incubation, 2 hours; ADP-Glo Max luminescence; read-out: SIK2 high ATP IC50 (μM) (Test Example 2)", "method_in_brief": "as §1", "units": {"IC50": "µM"}, "values": [{"molecule": "Cc1cc(-c2ccn3nc(Nc4cccnn4)cc3c2)c(OC[C@@H]2CN[C@H](C)CO2)cn1", "note": "[Example 513, 5-[2-methyl-5-[[(2S,5R)-5-methylmorpholin-2-yl]methoxy]-4-pyridyl]-N-pyridazin-3-yl-pyrazolo[1,5-a]pyridin-2-amine]", "IC50": 0.0275}, {"molecule": "CO[C@H]1CN(C)C[C@@H]1COc1cnc(C)cc1-c1ccn2nc(NC(=O)C3CC3)cc2c1", "note": "(single isomer, unassigned) [Example 461, Trans-*R, *R—N-[5-[5-[(4-methoxy-1-methyl-pyrrolidin-3-yl)methoxy]-2-methyl-4-pyridyl]pyrazolo[1,5-a]pyridin-2-yl]cyclopropanecarboxamide]", "IC50": "< 0.000847"}, {"molecule": "Cc1cc(-c2ccn3nc(Nc4cc(C)nc(C)n4)cc3c2)c(O[C@H]2C[C@H](NS(C)(=O)=O)C2)cn1", "note": "[Example 580, N-[3-[[4-[2-[(2,6-dimethylpyrimidin-4-yl)amino]pyrazolo[1,5-a]pyridin-5-yl]-6-methyl-3-pyridyl]oxy]cyclobutyl]methanesulfonamide]", "IC50": 0.00198}, {"molecule": "Cc1cc(-c2ccn3nc(Nc4cnc5cc[nH]c5n4)cc3c2)c(OCC(C)(C)O)cn1", "note": "[Example 291, 2-methyl-1-[[6-methyl-4-[2-(5H-pyrrolo[2,3-b]pyrazin-3-ylamino)pyrazolo[1,5-a]pyridin-5-yl]-3-pyridyl]oxy]propan-2-ol]", "IC50": 0.00809}, {"molecule": "Cc1cc(-c2ccn3nc(NC(=O)C4CC4)cc3c2)c(OCC(C)(N)C(F)(F)F)cn1", "note": "(single isomer, unassigned) [Example 159, (*R)—N-[5-[5-(2-amino-3,3,3-trifluoro-2-methyl-propoxy)-2-methyl-4-pyridyl]pyrazolo[1,5-a]pyridin-2-yl]cyclopropanecarboxamide]", "IC50": 0.0107}, {"molecule": "Cc1cc(Nc2cc3cc(-c4cc(O[C@@H](C)C#N)ncc4OCC(C)(C)C#N)ccn3n2)nc(C)n1", "note": "(single isomer, unassigned) [Example 681, (*S)-3-[[6-(1-cyanoethoxy)-4-[2-[(2,6-dimethylpyrimidin-4-yl)amino]pyrazolo[1,5-a]pyridin-5-yl]-3-pyridyl]oxy]-2,2-dimethyl-propanenitrile]", "IC50": 0.0347}, {"molecule": "Cc1ccc(Nc2cc3cc(-c4cc(C)ncc4OC[C@@H]4CNCCO4)ccn3n2)nc1", "note": "[Example 425, 5-[2-methyl-5-[[(2S)-morpholin-2-yl]methoxy]-4-pyridyl]-N-(5-methyl-2-pyridyl)pyrazolo[1,5-a]pyridin-2-amine]", "IC50": 0.00568}, {"molecule": "Cc1cc(-c2ccn3nc(Nc4cc(C)c(=O)n(C)n4)cc3c2)c(OCC(C)(C)C#N)cn1", "note": "[Example 269, 3-[[4-[2-[(1,5-dimethyl-6-oxo-pyridazin-3-yl)amino]pyrazolo[1,5-a]pyridin-5-yl]-6-methyl-3-pyridyl]oxy]-2,2-dimethyl-propanenitrile]", "IC50": 0.00153}, {"molecule": "Cc1cc(-c2ccn3nc(Nc4cccc(C)n4)cc3c2)c(OC[C@@H]2CNCCO2)cn1", "note": "[Example 426, 5-[2-methyl-5-[[(2S)-morpholin-2-yl]methoxy]-4-pyridyl]-N-(6-methyl-2-pyridyl)pyrazolo[1,5-a]pyridin-2-amine]", "IC50": 0.00403}, {"molecule": "Cc1cc(-c2ccn3nc(Nc4ccc5cc[nH]c5n4)cc3c2)c(OCC(C)(C)O)cn1", "note": "[Example 240, 2-methyl-1-[[6-methyl-4-[2-(1H-pyrrolo[2,3-b]pyridin-6-ylamino)pyrazolo[1,5-a]pyridin-5-yl]-3-pyridyl]oxy]propan-2-ol]", "IC50": 0.016}, {"molecule": "Cc1cc(-c2ccn3nc(Nc4cccnn4)cc3c2)c(OC[C@@H]2CNCCO2)cn1", "note": "[Example 134, 5-[2-methyl-5-[[(2S)-morpholin-2-yl]methoxy]-4-pyridyl]-N-pyridazin-3-yl-pyrazolo[1,5-a]pyridin-2-amine]", "IC50": 0.0128}, {"molecule": "Cc1cc(-c2ccn3nc(Nc4cc(C)nc(C)n4)cc3c2)c(O[C@@H]2CCS(=O)(=O)N(C)C2)cn1", "note": "(single isomer, unassigned) [Example 354, (*R)—N-(2,6-dimethylpyrimidin-4-yl)-5-[2-methyl-5-(2-methyl-1,1-dioxo-thiazinan-4-yl)oxy-4-pyridyl]pyrazolo[1,5-a]pyridin-2-amine]", "IC50": 0.0322}, {"molecule": "Cc1cc(-c2ccn3nc(Nc4cc(C)c(=O)n(C)n4)cc3c2)c(O[C@H]2CC[C@H](O)CC2)cn1", "note": "[Example 226, 6-((5-(5-(((1r,4r)-4-hydroxycyclohexyl)oxy)-2-methylpyridin-4-yl)pyrazolo[1,5-a]pyridin-2-yl)amino)-2,4-dimethylpyridazin-3(2H)-one]", "IC50": 0.00126}, {"molecule": "COc1cc(Nc2cc3cc(-c4cc(C)ncc4O[C@H]4CC[C@H](O)CC4)ccn3n2)cc(OC)c1C(=O)NC1CC1", "note": "[Example 245, N-cyclopropyl-4-[[5-[5-(4-hydroxycyclohexoxy)-2-methyl-4-pyridyl]pyrazolo[1,5-a]pyridin-2-yl]amino]-2,6-dimethoxy-benzamide]", "IC50": 0.0239}, {"molecule": "N-[5-[2-cyano-5-[[(1R,5S,7s)-9-methyl-3-oxa-9-azabicyclo[3.3.1]nonan-7-yl]oxy]-4-pyridyl]pyrazolo[1,5-a]pyridin-2-yl]cyclopropanecarboxamide [Example 656]", "IC50": 0.132}, {"molecule": "CC(=O)NC(C)(C)COc1cnc(C)cc1-c1ccn2nc(Nc3cc(C)nc(C)n3)cc2c1", "note": "[Example 360, N-[2-[[4-[2-[(2,6-dimethylpyrimidin-4-yl)amino]pyrazolo[1,5-a]pyridin-5-yl]-6-methyl-3-pyridyl]oxy]-1,1-dimethyl-ethyl]acetamide]", "IC50": 0.0058}, {"molecule": "COc1cc(Nc2cc3cc(-c4cc(C)ncc4O[C@H]4CC[C@H](O)CC4)ccn3n2)cc(OC)c1C(=O)NCC(F)(F)F", "note": "[Example 241, 4-[[5-[5-(4-hydroxycyclohexoxy)-2-methyl-4-pyridyl]pyrazolo[1,5-a]pyridin-2-yl]amino]-2,6-dimethoxy-N-(2,2,2-trifluoroethyl)benzamide]", "IC50": 0.0401}]}]}
